# Experimental data taken from the supplement of paper PMC10307832.
# Legend:
# Assay in all cases: relative viability (nuclei count vs DMSO), 5 days (fraction); higher = more cells survive
# Seliciclib + Linsitinib = compound: CC[C@H](CO)Nc1nc(NCc2ccccc2)c2ncn(C(C)C)c2n1 [Seliciclib] + C[C@]1(O)C[C@@H](c2nc(-c3ccc4ccc(-c5ccccc5)nc4c3)c3c(N)nccn32)C1 [Linsitinib] (partner 1 µM)
# Procedure, shortened: (§1)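 One day after seeding in 1536-well plates, lung cancer cell lines were dosed by pin tool. Dosing was either single-drug or a fixed anchor-drug dose plus five library-drug doses (not always all listed) in √10 steps. After 5 days, nuclei were stained in one fix-and-stain step and counted on 4× images, and relative viability is the nuclei count of treated wells over that of vehicle wells, given as the median of duplicate plates.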
# Seliciclib + Pemetrexed = compound: CC[C@H](CO)Nc1nc(NCc2ccccc2)c2ncn(C(C)C)c2n1 [Seliciclib] + Nc1nc2[nH]cc(CCc3ccc(C(=O)N[C@@H](CCC(=O)O)C(=O)O)cc3)c2c(=O)[nH]1 [Pemetrexed] (partner 0.2 µM)
# Procedure, shortened: as §1
# Seliciclib + Vorinostat = compound: CC[C@H](CO)Nc1nc(NCc2ccccc2)c2ncn(C(C)C)c2n1 [Seliciclib] + O=C(CCCCCCC(=O)Nc1ccccc1)NO [Vorinostat] (partner 1 µM)
# Procedure, shortened: as §1
# Seliciclib + Olaparib = compound: CC[C@H](CO)Nc1nc(NCc2ccccc2)c2ncn(C(C)C)c2n1 [Seliciclib] + O=C(c1cc(Cc2n[nH]c(=O)c3ccccc23)ccc1F)N1CCN(C(=O)C2CC2)CC1 [Olaparib] (partner 8 µM)
# Procedure, shortened: as §1
Cell Line,relative viability (Seliciclib + Linsitinib; first compound 0.08 µM),relative viability (Seliciclib + Linsitinib; first compound 0.253 µM),relative viability (Seliciclib + Linsitinib; first compound 0.8 µM),relative viability (Seliciclib + Linsitinib; first compound 2.53 µM),relative viability (Seliciclib + Linsitinib; first compound 8 µM),relative viability (Seliciclib + Pemetrexed; first compound 0.08 µM),relative viability (Seliciclib + Pemetrexed; first compound 0.253 µM),relative viability (Seliciclib + Pemetrexed; first compound 0.8 µM),relative viability (Seliciclib + Pemetrexed; first compound 2.53 µM),relative viability (Seliciclib + Pemetrexed; first compound 8 µM),relative viability (Seliciclib + Vorinostat; first compound 0.08 µM),relative viability (Seliciclib + Vorinostat; first compound 0.253 µM),relative viability (Seliciclib + Vorinostat; first compound 0.8 µM),relative viability (Seliciclib + Vorinostat; first compound 2.53 µM),relative viability (Seliciclib + Vorinostat; first compound 8 µM),relative viability (Seliciclib + Olaparib; first compound 0.08 µM),relative viability (Seliciclib + Olaparib; first compound 0.253 µM),relative viability (Seliciclib + Olaparib; first compound 0.8 µM),relative viability (Seliciclib + Olaparib; first compound 2.53 µM),relative viability (Seliciclib + Olaparib; first compound 8 µM)
201T,1.04,1.07,0.994,1.05,0.982,0.379,0.357,0.382,0.27,0.323,0.967,1.07,0.904,0.637,0.906,0.805,0.834,0.812,0.882,0.805
A-427,1.08,1.11,1.2,1.15,1.13,1.01,1.01,1.03,0.963,0.917,0.856,0.815,0.877,0.823,0.824,0.79,0.714,0.712,0.617,0.639
ABC-1,0.919,0.806,0.918,0.957,1.04,,,,,,0.996,0.953,1.29,,0.774,0.864,0.741,0.615,,0.782
BEN,1.16,,0.852,1.07,0.786,0.805,0.676,0.67,0.611,0.63,0.543,0.533,0.55,0.502,0.489,0.898,1.01,1.16,1.01,0.815
CAL-12T,0.87,0.977,0.744,0.742,0.673,1.16,0.949,1.2,1.06,1.01,0.583,0.407,0.788,0.7,0.625,0.759,0.712,0.742,0.585,0.472
COR-L23,0.873,0.84,0.922,1.11,0.684,0.209,0.192,0.195,0.198,0.212,0.402,0.43,0.403,0.458,0.359,0.302,0.451,0.345,0.364,0.297
COR-L 105,1.04,0.748,0.943,0.91,0.926,0.98,1.09,1.21,1.09,1.01,0.83,0.901,0.859,0.802,0.575,0.656,0.602,0.7,0.713,0.733
Calu-6,1.05,0.996,0.95,1.01,0.899,,,,,,,,,,,0.602,0.658,0.565,0.624,0.532
ChaGo-K-1,,,,,,0.25,0.253,0.264,0.251,0.251,0.758,0.628,0.743,0.654,0.433,0.424,0.464,0.379,0.425,0.359
EBC-1,0.911,0.836,0.942,0.88,0.794,,,,,,,,,,,0.712,0.651,0.734,0.665,0.461
